Results published in paper PMC4515429, “Anti-Biofilm and Immunomodulatory Activities of Peptides That Inhibit Biofilms Formed by Pathogens Isolated from Cystic Fibrosis Patients” (Antibiotics, 2014).
Values after ≈ are worked out from the molar mass of the structure shown. Where two headings read alike, the source gives them in different places. Where a SMILES comes first, the peptide text is derived from it. Bridges are numbered along the chain shown (N, C = ends). Where no end group is shown, it is not given here. [ ]: non-standard residue; d: D form. The star is where a group is joined. X1 = CC[C@H](C)CCCCC(=O)*; Dab = NCC[C@H](N)C(=O)O

Key:
[1] = test system: P. aeruginosa; conditions: at one sixteenth the minimum inhibitory concentration (MIC); cited from earlier work
Excerpt: Cationic host defense (antimicrobial) peptides represent a novel alternative to conventional antibiotics. […] Similar results were subsequently shown by other groups. This encouraged t ...

[2] = test system: P. aeruginosa C2773 (Classic)
Method: (§1) In addition to the wild type lab isolates Pseudomonas aeruginosa strains PAO1 and PA14, a variety of cystic fibrosis clinical isolates of P. aeruginosa and Burkholderia cepacia complex strains were utilized (Table 1). Planktonic cells from each of the P. aeruginosa and B. cepacia strains were grown in BM2 glucose or cation-adjusted Mueller-Hinton. The minimal inhibitory concentration (MIC) for peptides in brain-heart infusion (BHI) was assessed by the broth microdilution method with minor modifications for cationic peptides. […] MIC assays were performed in sterile 96-well polypropylene microtiter plates. […] The plates were incubated at 37 °C for 18 h.

[3] = test system: P. aeruginosa 1172 (Classic)
Method: as §1

[4] = test system: B. dolosa CEP0021 (VI); conditions: 18 h
Method: as §1

[5] = test system: P. aeruginosa 4020 (Classic)
Method: as §1

[6] = test system: P. aeruginosa 3195 (Classic)
Method: as §1

[7] = test system: B. multivorans D2661 (Genomovar II); conditions: 18 h
Method: as §1

[8] = test system: P. aeruginosa C4278 (Mucoid)
Method: as §1

[9] = test system: B. ambifaria CEP0996 (VII); conditions: 18 h
Method: as §1

[10] = test system: B. cenocepacia C5424 (IIIa); conditions: 18 h
Method: as §1

[11] = test system: P. aeruginosa C4276 (Classic)
Method: as §1

[12] = test system: B. stabilis C6061 (IV); conditions: 18 h
Method: as §1

[13] = test system: P. aeruginosa 7632 (Classic)
Method: as §1

[14] = test system: P. aeruginosa 2631 (Classic)
Method: as §1

[15] = test system: B. cenocepacia 4813 (IIIa); conditions: 18 h
Method: as §1

[16] = test system: P. aeruginosa PA01; conditions: 18 h
Method: as §1

[17] = test system: P. aeruginosa 4608 (Mucoid)
Method: as §1

[18] = test system: B. cenocepacia CEP509 (IIIb); conditions: 18 h
Method: as §1

[19] = test system: P. aeruginosa 2639 (Mucoid)
Method: as §1

[20] = test system: P. aeruginosa PA14
Method: as §1

[21] = test system: P. aeruginosa 7633 (Entire)
Method: as §1

[22] = test system: P. aeruginosa 3330 (Classic)
Method: as §1

[23] = test system: B. cenocepacia CEP0055 (IIIb); conditions: 18 h
Method: as §1

[24] = test system: planktonic cells of Burkholderia strains
Method: as §1

[25] = test system: monocyte chemotactic protein-1 (MCP-1) production by human peripheral blood mononuclear cells; assay: MCP-1 induction in PBMCs, sandwich ELISA; type: cell-based; conditions: 24 h; for level of MCP-1 induction at 100 µg/mL: 100 µg/mL peptide; for MCP-1 induction: 20 and 100 µg/mL peptide, cf. untreated control
Method: (§2) (A) Human peripheral blood mononuclear cells were subjected to 20 µg/mL and 100 µg/mL of HE1, HE4, HE10, HE12, and 1018 for 24 h. Monocyte chemotactic protein-1 (MCP-1) production was assessed using sandwich enzyme linked immunosorbent assay (ELISA). The level of MCP-1 induction was similar for HE1, HE4, HE10, and 1018 at 100 µg/mL; (B) LPS (20 ng/mL) was co-administered with 20 µg/mL of each of the aforementioned peptides for 24 h. The tumor necrosis factor-alpha (TNF-α) production in response to both stimulants was assessed using enzyme linked immunosorbent assay (ELISA) and compared to lipopolysaccharides (LPS) alone. […] Lactate dehydrogenase release from peripheral blood mononuclear cells (PBMCs) was measured to assess the toxicity of 20 µg/mL and 100 µg/mL of 1018 and its derivatives.
These studies were done as described previously. Briefly, human peripheral blood mononuclear cells (PBMCs) were isolated from the blood of healthy individuals obtained under University of British Columbia (UBC) human ethics approval. PBMCs were diluted to 2 × 10^6 cells/ml in RPMI-1640 medium (Gibco®, Grand Island, NY, USA) supplemented with 10% fetal bovine serum (FBS). Subsequently, 250 µL of cells were seeded in each well of a 48-well dish. […] To assess chemokine induction after 24 h, the levels of chemokine MCP-1 (CCL2) were assessed in the supernatants three times independently using a sandwich ELISA kit (BioSource International, Grand Island, NY, USA). To look at the anti-inflammatory activity of the peptides in suppressing LPS-induced TNFα, P. aeruginosa LPS was added at a final concentration of 20 ng/mL as well as peptides at 20 μg/mL or 100 μg/mL. Secretion of TNF-α was monitored by capture ELISA (eBiosciences, San Diego, CA, USA) after 24 h.

[26] = test system: P. aeruginosa PA14; assay: Anti-biofilm activity, BioFlux apparatus; type: cell-based, Pseudomonas aeruginosa; conditions: 15 µg/mL peptide
[27] = test system: TNF-α production by human peripheral blood mononuclear cells; assay: LPS-induced TNF-α production in PBMCs, ELISA; type: cell-based; conditions: LPS-stimulated PBMCs, Figure 4B
Method: as §2
These studies were done as described previously. Briefly, human peripheral blood mononuclear cells (PBMCs) were isolated from the blood of healthy individuals obtained under University of British Columbia (UBC) human ethics approval. […] To assess chemokine induction after 24 h, the levels of chemokine MCP-1 (CCL2) were assessed in the supernatants three times independently using a sandwich ELISA kit (BioSource International, Grand Island, NY, USA). […] Secretion of TNF-α was monitored by capture ELISA (eBiosciences, San Diego, CA, USA) after 24 h.

[28] = test system: methicillin resistant Staphylococcus aureus (MRSA); assay: Biofilm inhibition in 96-well plates, static conditions; type: cell-based; conditions: polypropylene microtiter plates, BM2, 24 h, 37 °C, crystal violet, absorbance 595 nm
Method: Figure 3 Biofilm inhibitory activity against methicillin resistant Staphylococcus aureus (MRSA) in 96-well plates. […] Statistical significance was assessed using one-way ANOVA (*, p < 0.05; ***, p < 0.001; ****, p < 0.0001).

[29] = test system: P. aeruginosa PA14; assay: Flow cell biofilm assay, confocal microscopy; type: cell-based, Pseudomonas aeruginosa; conditions: 72 h, 37 °C, inhibition and eradication conditions, Syto-9/PI confocal imaging
Method: For biofilm prevention conditions, the peptides were added to the medium from the beginning of the experiment. For eradication experiments, bacteria were allowed to develop structured 2-day-old biofilms prior to peptide and antibiotics treatment for the following 24 h.
Biofilms were grown for 72 h, in the absence or presence of the desired concentration of the different peptides, at 37 °C in flow chambers with channel dimensions of 1 by 4 by 40 mm, and then stained and examined by confocal microscopy, as described previously. For biofilm prevention studies the peptide was present in the flow-through medium throughout the biofilm growth while for eradication experiments, biofilms were allowed to grow for 2 days, before treating them with peptide for the last 24 h of the experiment.

[30] = test system: B. cenocepacia 4813; assay: Anti-biofilm activity of 1018 derivatives (Table 4); type: cell-based, Burkholderia cenocepacia; conditions: 15 µg/mL peptide
Method: Biofilm formation was initially analyzed using a static abiotic solid surface assay as described elsewhere [21]. Dilutions (1/100) of overnight cultures were incubated in BM2 glucose medium (62 mM potassium phosphate buffer (pH 7), 7 mM (NH4)2SO4, 2 mM MgSO4, 10 μM FeSO4, 0.4% (wt/vol) glucose, 0.5% (wt/vol) Casamino Acids) in polypropylene microtiter plates (Fisher Scientific, Waltham, MA, USA) in the presence of the different peptides for 22 h at 37 °C. Planktonic cells were removed and biofilm cells adhering to the side of the tubes were stained with crystal violet, extracted into ethanol, and the optical density at 595 nm (OD595) measured using a microtiter plate reader (Bio-Tek Instruments Inc., Winooski, VT, USA). Peptides were added at time zero (prior to adding the diluted, overnight cultures) at various concentrations, and the decrease in biofilm formation was recorded at 22 h for P. aeruginosa, Burkholderia and Methicillin-resistant Staphylococcus aureus isolates.

[31] = planktonic cells, broth microdilution, BHI, 5 × 10^5 CFU/mL, 37 °C, 18 h, performed at least three times
[32] = planktonic cells, broth microdilution, BHI, 5 × 10^5 CFU/mL, 37 °C, performed at least three times

Compound: CC[C@H](C)[C@H](NC(=O)[C@H](CCCCN)NC(=O)[C@H](CCC(=O)O)NC(=O)[C@H](CCCCN)NC(=O)[C@H](CO)NC(=O)[C@H](CCCCN)NC(=O)[C@H](CCCNC(=N)N)NC(=O)[C@H](Cc1ccccc1)NC(=O)[C@H](Cc1ccccc1)NC(=O)[C@H](CC(=O)O)NC(=O)CNC(=O)[C@H](CC(C)C)NC(=O)[C@@H](N)CC(C)C)C(=O)NCC(=O)N[C@@H](CCCCN)C(=O)N[C@@H](CCC(=O)O)C(=O)N[C@@H](Cc1ccccc1)C(=O)N[C@@H](CCCCN)C(=O)N[C@@H](CCCNC(=N)N)C(=O)N[C@H](C(=O)N[C@H](C(=O)N[C@@H](CCC(N)=O)C(=O)N[C@@H](CCCNC(=N)N)C(=O)N[C@H](C(=O)N[C@@H](CCCCN)C(=O)N[C@@H](CC(=O)O)C(=O)N[C@@H](Cc1ccccc1)C(=O)N[C@@H](CC(C)C)C(=O)N[C@@H](CCCNC(=N)N)C(=O)N[C@@H](CC(N)=O)C(=O)N[C@@H](CC(C)C)C(=O)N[C@H](C(=O)N1CCC[C@H]1C(=O)N[C@@H](CCCNC(=N)N)C(=O)N[C@H](C(=O)N[C@@H](CCC(=O)O)C(=O)N[C@@H](CO)C(=O)O)[C@@H](C)O)C(C)C)[C@@H](C)CC)C(C)C)[C@@H](C)CC [LL-37]
- decrease in biofilm formation [1]: 50%
- MIC [2, 31]: 256 µg/mL (≈ 57 µM)
- MIC [3, 31]: >128 µg/mL
- MIC [4, 32]: >512 µg/mL
- MIC [5, 31]: >128 µg/mL
- MIC [6, 31]: 64 µg/mL (≈ 14.2 µM)
- MIC [7, 32]: >512 µg/mL
- MIC [8, 31]: >256 µg/mL
- MIC [9, 32]: >512 µg/mL
- MIC [10, 32]: >256 µg/mL
- MIC [11, 31]: 256 µg/mL (≈ 57 µM)
- MIC [12, 32]: >512 µg/mL
- MIC [13, 31]: 256 µg/mL (≈ 57 µM)
- MIC [14, 31]: >256 µg/mL
- MIC [15, 32]: >256 µg/mL
- MIC [16, 32]: 32 µg/mL (≈ 7.12 µM)
- MIC [17, 31]: >128 µg/mL
- MIC [18, 32]: >512 µg/mL
- MIC [19, 31]: >128 µg/mL
- MIC [20, 31]: 32 µg/mL (≈ 7.12 µM)
- MIC [21, 31]: >128 µg/mL
- MIC [22, 31]: >128 µg/mL
- MIC [23, 32]: >512 µg/mL

Compound: CC[C@H](C)CCCCC(=O)N[C@@H](CCN)C(=O)N[C@H](C(=O)N[C@@H](CCN)C(=O)N[C@H]1CCNC(=O)[C@H]([C@@H](C)O)NC(=O)[C@H](CCN)NC(=O)[C@H](CCN)NC(=O)[C@H](CC(C)C)NC(=O)[C@@H](Cc2ccccc2)NC(=O)[C@H](CCN)NC1=O)[C@@H](C)O [Polymyxin B] (X1-[Dab]T[Dab][Dab][Dab][dF]L[Dab][Dab]T; lactam 4-C (inferred); N-terminus assumed)
- MIC ([2]; C2773 (Classic, 18 h)): 4 µg/mL (≈ 3.32 µM)
- MIC ([3]; 1172 (Classic, 18 h)): 2 µg/mL (≈ 1.66 µM)
- MIC [4]: >128 µg/mL
- MIC ([5]; 4020 (Classic, 18 h)): 2 µg/mL (≈ 1.66 µM)
- MIC ([6]; 3195 (Classic, 18 h)): 2 µg/mL (≈ 1.66 µM)
- MIC [7]: >128 µg/mL
- MIC ([8]; C4278 (Mucoid, 18 h)): 2 µg/mL (≈ 1.66 µM)
- MIC [9]: >128 µg/mL
- MIC [10]: >128 µg/mL
- MIC ([11]; C4276 (Classic, 18 h)): 2 µg/mL (≈ 1.66 µM)
- MIC [12]: >128 µg/mL
- MIC ([13]; 7632 (Classic, 18 h)): 2 µg/mL (≈ 1.66 µM)
- MIC ([14]; 2631 (Classic, 18 h)): 4 µg/mL (≈ 3.32 µM)
- MIC [15]: >128 µg/mL
- MIC [16]: 2 µg/mL (≈ 1.66 µM)
- MIC ([17]; 4608 (Mucoid, 18 h)): 2 µg/mL (≈ 1.66 µM)
- MIC [18]: >128 µg/mL
- MIC ([19]; 2639 (Mucoid, 18 h)): 2 µg/mL (≈ 1.66 µM)
- MIC ([20]; PA14, 18 h): 2 µg/mL (≈ 1.66 µM)
- MIC ([21]; 7633 (Entire, 18 h)): 2 µg/mL (≈ 1.66 µM)
- MIC ([22]; 3330 (Classic, 18 h)): 2 µg/mL (≈ 1.66 µM)
- MIC [23]: >128 µg/mL

Compound: KRWWKWIRW-NH2 (C-terminus assumed) [HHC-10]
- MIC against planktonic cells of Burkholderia strains [24]: > 256 µg/mL

Compound: KRWWKWWRR-NH2 (C-terminus assumed) [HHC-36]
- MIC against planktonic cells of Burkholderia strains [24]: > 256 µg/mL

Compound: RFKRVARVIW [HE12]
- MIC ([20]; PA14, 18 h): 80 µg/mL

Compound: RRWIRVAVILRV [HE1]
- level of MCP-1 induction at 100 µg/mL [25]: similar
- MCP-1 induction [25]: significantly induced MCP-1
- Anti-Biofilm Activity (% Decrease in Biofilm) [26]: 93%

Compound: VRLI--VRIWRR [HE10, 1018 derivative, truncated to remove hydrophobic patch]
- suppression of TNF-α production [27]: strongly suppressing the production of TNF-α
- level of MCP-1 induction at 100 µg/mL [25]: similar
- MCP-1 induction [25]: significantly induced MCP-1
- biofilm inhibitory activity against MRSA compared to 1018 [28]: notably more active
- anti-biofilm activity in flow cells [29]: strong anti-biofilm activity comparable with that of 1018

Compound: VRLIRAVRAWRV [HE2, 1018 derivative, break hydrophobicity; maintain charge]
- Anti-Biofilm Activity (% Decrease in Biofilm) [26]: 42%
- Anti-Biofilm Activity (% Decrease in Biofilm) [30]: 24%

Compound: VRLIWAVRIWRR [HE4]
- MIC ([20]; PA14, 18 h): 80 µg/mL

Compound: VRWARVARILRV [HE3, 1018 derivative, reverse of HE2]
- Anti-Biofilm Activity (% Decrease in Biofilm) [26]: 31%
- Anti-Biofilm Activity (% Decrease in Biofilm) [30]: 21%
